From patent publication US20250115669A1, “FGFR1/KLB Targeting Agonistic Antigen-Binding Proteins and Conjugates Thereof with GLP-1R Agonistic Peptides” (SANOFI, priority 2020, published 2025)
pEC50: −log10 of the molar value. Like-named read-outs stand apart in the source and are kept apart here. Peptide text beside a SMILES is read from it.

Tests used:
Assay type in all cases: cell-based
[1] = target: T1, human glucagon (GCG) receptor (Homo sapiens, UniProt P47871); assay: HTRF cAMP assay in HEK-293 cells expressing human glucagon receptor
T1 construct: expressed in transfected cells; host or cells: PSC-HEK-293

human GIP receptor = target: T2, human GIP receptor (Homo sapiens, UniProt P48546); assay: HTRF cAMP assay in HEK-293 cells expressing human GIP receptor
T2 construct: expressed in transfected cells; host or cells: PSC-HEK-293
T2 sequence (P48546 22-466): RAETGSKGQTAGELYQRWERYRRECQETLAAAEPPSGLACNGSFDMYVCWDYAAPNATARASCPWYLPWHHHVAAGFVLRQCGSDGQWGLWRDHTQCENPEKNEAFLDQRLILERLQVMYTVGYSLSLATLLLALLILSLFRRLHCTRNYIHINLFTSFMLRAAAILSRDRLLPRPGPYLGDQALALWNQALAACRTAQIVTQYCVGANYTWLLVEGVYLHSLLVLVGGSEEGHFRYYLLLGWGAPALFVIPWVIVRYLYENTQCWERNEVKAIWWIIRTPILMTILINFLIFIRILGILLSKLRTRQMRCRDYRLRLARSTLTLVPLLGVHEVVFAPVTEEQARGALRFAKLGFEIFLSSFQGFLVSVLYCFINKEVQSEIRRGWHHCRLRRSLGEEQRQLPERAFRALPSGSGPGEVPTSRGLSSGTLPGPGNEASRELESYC

human GLP-1 receptor = target: T3, human GLP-1 receptor (Homo sapiens, UniProt P43220); assay: HTRF cAMP assay in HEK-293 cells expressing human GLP-1 receptor
T3 construct: expressed in transfected cells; host or cells: PSC-HEK-293
Experimental: Each vial contained 1.8 ml cells. The vials were slowly frozen to −80° C. in isopropanol, and then transferred in liquid nitrogen for storage.
Cells were resuspended in assay buffer (cell buffer plus 2 mM IBMX) and adjusted to a cell density of 1 million cells/ml.
For measurement of cAMP generation, 5 μl cells (final 5000 cells/well) and 5 μl of test compound were added to a 384-well plate, followed by incubation for 30 min at room temperature.
The cAMP generated was determined using a kit from Cisbio Corp. based on HTRF (Homogenous Time Resolved Fluorescence). The cAMP assay was performed according to manufacturer's instructions (Cisbio).

[2] = HEK-293 cells, read-out: HTRF cAMP EC50 Human GCGR
[3] = HEK-293 cells, read-out: HTRF cAMP EC50 Human GIPR
[4] = HEK-293 cells, read-out: HTRF cAMP EC50 Human GLP-1R

T1 sequence (P47871 26-477): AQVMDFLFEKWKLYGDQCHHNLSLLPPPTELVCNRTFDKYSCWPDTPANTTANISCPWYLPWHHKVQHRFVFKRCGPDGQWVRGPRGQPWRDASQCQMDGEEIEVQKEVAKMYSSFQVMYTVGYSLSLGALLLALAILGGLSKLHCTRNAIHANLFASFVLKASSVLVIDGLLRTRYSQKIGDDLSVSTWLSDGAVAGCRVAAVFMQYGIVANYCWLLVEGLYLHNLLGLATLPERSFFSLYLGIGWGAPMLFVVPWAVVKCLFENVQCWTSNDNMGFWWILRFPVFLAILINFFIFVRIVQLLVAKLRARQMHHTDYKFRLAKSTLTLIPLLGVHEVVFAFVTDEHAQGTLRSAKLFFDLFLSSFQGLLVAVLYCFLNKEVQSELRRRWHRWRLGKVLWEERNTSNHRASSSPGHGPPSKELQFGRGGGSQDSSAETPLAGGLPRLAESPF
T3 sequence (P43220 24-463): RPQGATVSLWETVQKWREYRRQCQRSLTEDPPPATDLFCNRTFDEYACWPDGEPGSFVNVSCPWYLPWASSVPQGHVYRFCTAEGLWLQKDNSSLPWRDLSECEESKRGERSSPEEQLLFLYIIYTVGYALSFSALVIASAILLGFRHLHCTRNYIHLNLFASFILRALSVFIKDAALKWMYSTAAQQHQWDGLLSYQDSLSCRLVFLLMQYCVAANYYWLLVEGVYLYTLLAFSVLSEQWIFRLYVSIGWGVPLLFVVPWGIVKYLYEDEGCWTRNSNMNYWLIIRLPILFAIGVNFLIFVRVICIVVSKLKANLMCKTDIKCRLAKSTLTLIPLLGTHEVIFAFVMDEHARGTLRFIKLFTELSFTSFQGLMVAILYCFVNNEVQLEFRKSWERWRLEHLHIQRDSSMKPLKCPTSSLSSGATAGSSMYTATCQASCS

Work on CC[C@H](C)[C@H](NC(=O)[C@H](CC(C)C)NC(=O)[C@H](Cc1c[nH]c2ccccc12)NC(=O)[C@H](Cc1ccc(O)cc1)NC(=O)[C@@H](NC(=O)[C@H](Cc1ccccc1)NC(=O)[C@H](CC(C)C)NC(=O)[C@H](CCCNC(=N)N)NC(=O)[C@@H](NC(=O)[C@H](CC(C)C)NC(=O)[C@H](CCCNC(=N)N)NC(=O)[C@H](CCCCN)NC(=O)[C@H](CCC(=O)O)NC(=O)[C@H](CC(C)C)NC(=O)[C@H](CCC(N)=O)NC(=O)[C@H](CCCCN)NC(=O)[C@H](CO)NC(=O)[C@H](CCCCN)NC(=O)[C@H](CC(=O)O)NC(=O)[C@H](CO)NC(=O)[C@@H](NC(=O)[C@H](Cc1ccccc1)NC(=O)[C@@H](NC(=O)CNC(=O)[C@H](CCC(=O)O)NC(=O)CNC(=O)[C@@H](N)Cc1c[nH]cn1)[C@@H](C)O)[C@@H](C)O)C(C)C)[C@@H](C)CC)C(=O)N[C@@H](C)C(=O)NCC(=O)NCC(=O)N[C@@H](Cc1c[nH]cn1)C(=O)N[C@@H](CO)C(=O)N[C@@H](CO)C(=O)NCC(=O)N[C@@H](CCCCN)C(=O)N1CCC[C@H]1C(=O)N1CCC[C@H]1C(=O)N1CCC[C@H]1C(=O)N[C@@H](CCCCN)C(N)=O [Ab P024] (H-HGEGTFTSDKSKQLEKRLVRLFIYWLIAGGHSSGKPPPK-NH2; N-terminus assumed) yielded a pEC50 [1, 2] of less than 8.00, a pEC50 (human GIP receptor; [3]) of no more than 8.00 and a pEC50 (human GLP-1 receptor; [4]) of 11.59.
CC[C@H](C)[C@H](NC(=O)[C@H](Cc1ccccc1)NC(=O)[C@H](CC(C)C)NC(=O)[C@H](CCCNC(=N)N)NC(=O)[C@@H](NC(=O)[C@H](C)NC(=O)[C@H](CCC(=O)O)NC(=O)[C@H](CCC(=O)O)NC(=O)[C@H](CCC(=O)O)NC(=O)[C@H](CC(C)C)NC(=O)[C@H](CCC(N)=O)NC(=O)[C@H](CCCCN)NC(=O)[C@H](CO)NC(=O)[C@H](CCCCN)NC(=O)[C@H](CC(=O)O)NC(=O)[C@H](CO)NC(=O)[C@@H](NC(=O)[C@H](Cc1ccccc1)NC(=O)[C@@H](NC(=O)CNC(=O)[C@H](CCC(=O)O)NC(=O)CNC(=O)[C@H](Cc1c[nH]cn1)NC(=O)CN)[C@@H](C)O)[C@@H](C)O)C(C)C)C(=O)N[C@@H](CCC(=O)O)C(=O)N[C@@H](Cc1c[nH]c2ccccc12)C(=O)N[C@@H](CC(C)C)C(=O)N[C@@H](CCCCN)C(=O)N[C@@H](C)C(=O)NCC(=O)NCC(=O)N1CCC[C@H]1C(=O)N[C@@H](CCCCN)C(=O)N[C@@H](CCCCN)C(=O)N[C@H](C(=O)N[C@@H](CCCNC(=N)N)C(=O)N[C@@H](Cc1ccc(O)cc1)C(=O)N[C@@H](CO)C(N)=O)[C@@H](C)CC [Ab P014] (H-GHGEGTFTSDKSKQLEEEAVRLFIEWLKAGGPKKIRYS-NH2; N-terminus assumed) was tested, and the pEC50 [1, 2] was 8.27, the pEC50 (human GIP receptor; [3]) was less than 8.00 and the pEC50 (human GLP-1 receptor; [4]) was 10.98.
CC[C@H](C)[C@H](NC(=O)[C@H](Cc1ccccc1)NC(=O)[C@H](CC(C)C)NC(=O)[C@H](CCC(N)=O)NC(=O)[C@@H](NC(=O)[C@H](C)NC(=O)[C@H](CCC(=O)O)NC(=O)[C@H](CCC(=O)O)NC(=O)[C@H](CCC(=O)O)NC(=O)[C@H](CC(C)C)NC(=O)[C@H](CCC(N)=O)NC(=O)[C@H](CCCCN)NC(=O)[C@H](CO)NC(=O)[C@H](CC(C)C)NC(=O)[C@H](CC(=O)O)NC(=O)[C@H](CO)NC(=O)[C@@H](NC(=O)[C@H](Cc1ccccc1)NC(=O)[C@@H](NC(=O)CNC(=O)[C@H](CCC(=O)O)NC(=O)CNC(=O)[C@H](Cc1c[nH]cn1)NC(=O)CN)[C@@H](C)O)[C@@H](C)O)C(C)C)C(=O)N[C@@H](CCC(=O)O)C(=O)N[C@@H](Cc1c[nH]c2ccccc12)C(=O)N[C@@H](CC(C)C)C(=O)N[C@@H](CCCCN)C(=O)N[C@@H](C)C(=O)NCC(=O)NCC(=O)N1CCC[C@H]1C(=O)N[C@@H](CCCCN)C(=O)N[C@@H](CCCCN)C(=O)N[C@H](C(=O)N[C@@H](CCCNC(=N)N)C(=O)N[C@@H](Cc1ccc(O)cc1)C(=O)N[C@@H](CO)C(N)=O)[C@@H](C)CC [Ab P015] (H-GHGEGTFTSDLSKQLEEEAVQLFIEWLKAGGPKKIRYS-NH2; N-terminus assumed) showed a pEC50 [1, 2] of less than 8.00, a pEC50 (human GIP receptor; [3]) of less than 8.00 and a pEC50 (human GLP-1 receptor; [4]) of 10.81.
CC[C@H](C)[C@H](NC(=O)[C@H](CC(C)C)NC(=O)[C@H](Cc1c[nH]c2ccccc12)NC(=O)[C@H](Cc1ccc(O)cc1)NC(=O)[C@@H](NC(=O)[C@H](Cc1ccccc1)NC(=O)[C@H](CC(C)C)NC(=O)[C@H](CCCNC(=N)N)NC(=O)[C@H](CCC(N)=O)NC(=O)[C@H](CC(C)C)NC(=O)[C@H](CCCNC(=N)N)NC(=O)[C@H](CCCCN)NC(=O)[C@H](CCC(=O)O)NC(=O)[C@H](CC(C)C)NC(=O)[C@H](CCC(N)=O)NC(=O)[C@H](CCCCN)NC(=O)[C@H](CO)NC(=O)[C@H](CC(C)C)NC(=O)[C@H](CC(=O)O)NC(=O)[C@H](CO)NC(=O)[C@@H](NC(=O)[C@H](Cc1ccccc1)NC(=O)[C@@H](NC(=O)CNC(=O)[C@H](CCC(=O)O)NC(=O)CNC(=O)[C@@H](N)Cc1c[nH]cn1)[C@@H](C)O)[C@@H](C)O)[C@@H](C)CC)C(=O)N[C@@H](C)C(=O)NCC(=O)NCC(=O)N[C@@H](Cc1c[nH]cn1)C(=O)N[C@@H](CO)C(=O)N[C@@H](CO)C(=O)NCC(=O)N[C@@H](CCCCN)C(=O)N1CCC[C@H]1C(=O)N1CCC[C@H]1C(=O)N1CCC[C@H]1C(=O)N[C@@H](CCCCN)C(N)=O [Ab P025] (H-HGEGTFTSDLSKQLEKRLQRLFIYWLIAGGHSSGKPPPK-NH2; N-terminus assumed) was tested, and the pEC50 [1, 2] was 9.26, the pEC50 (human GIP receptor; [3]) was 8.80 and the pEC50 (human GLP-1 receptor; [4]) was 11.80.
Compound CC[C@H](C)[C@H](NC(=O)[C@H](CC(C)C)NC(=O)[C@H](Cc1c[nH]c2ccccc12)NC(=O)[C@H](CC(C)C)NC(=O)[C@@H](NC(=O)[C@H](Cc1ccccc1)NC(=O)[C@H](CC(C)C)NC(=O)[C@H](CCCNC(=N)N)NC(=O)[C@@H](NC(=O)[C@H](CC(C)C)NC(=O)[C@H](CCCNC(=N)N)NC(=O)[C@H](CCCCN)NC(=O)[C@H](CCC(=O)O)NC(=O)[C@H](CC(C)C)NC(=O)[C@H](CCC(N)=O)NC(=O)[C@H](CCCCN)NC(=O)[C@H](CO)NC(=O)[C@H](CCCCN)NC(=O)[C@H](CC(=O)O)NC(=O)[C@H](CO)NC(=O)[C@@H](NC(=O)[C@H](Cc1ccccc1)NC(=O)[C@@H](NC(=O)CNC(=O)[C@H](CCC(=O)O)NC(=O)CNC(=O)[C@@H](N)Cc1c[nH]cn1)[C@@H](C)O)[C@@H](C)O)C(C)C)[C@@H](C)CC)C(=O)N[C@@H](C)C(=O)NCC(=O)NCC(=O)N[C@@H](Cc1c[nH]cn1)C(=O)N[C@@H](CO)C(=O)N[C@@H](CO)C(=O)NCC(=O)N[C@@H](CCCCN)C(=O)N1CCC[C@H]1C(=O)N1CCC[C@H]1C(=O)N1CCC[C@H]1C(=O)N[C@@H](CCCCN)C(N)=O [Ab P023] (H-HGEGTFTSDKSKQLEKRLVRLFILWLIAGGHSSGKPPPK-NH2; N-terminus assumed) has a pEC50 [1, 2] of less than 8.00, a pEC50 (human GIP receptor; [3]) of less than 8.00 and a pEC50 (human GLP-1 receptor; [4]) of 11.77.
CC[C@H](C)[C@H](NC(=O)[C@H](Cc1ccccc1)NC(=O)[C@H](CC(C)C)NC(=O)[C@H](CCC(N)=O)NC(=O)[C@@H](NC(=O)[C@H](CCCNC(=N)N)NC(=O)[C@H](CCC(=O)O)NC(=O)[C@H](CCC(=O)O)NC(=O)[C@H](CCC(=O)O)NC(=O)[C@H](CC(C)C)NC(=O)[C@H](CCC(N)=O)NC(=O)[C@H](CCCCN)NC(=O)[C@H](CO)NC(=O)[C@H](CC(C)C)NC(=O)[C@H](CC(=O)O)NC(=O)[C@H](CO)NC(=O)[C@@H](NC(=O)[C@H](Cc1ccccc1)NC(=O)[C@@H](NC(=O)CNC(=O)[C@H](CCC(=O)O)NC(=O)CNC(=O)[C@@H](N)Cc1c[nH]cn1)[C@@H](C)O)[C@@H](C)O)C(C)C)C(=O)N[C@@H](CCC(=O)O)C(=O)N[C@@H](Cc1c[nH]c2ccccc12)C(=O)N[C@@H](CC(C)C)C(=O)N[C@@H](CCCCN)C(=O)N[C@@H](C)C(=O)N[C@H](C(=O)NCC(=O)N1CCC[C@H]1C(=O)N[C@@H](CO)C(=O)N[C@@H](CO)C(=O)NCC(=O)N[C@@H](C)C(=O)N1CCC[C@H]1C(=O)N1CCC[C@H]1C(=O)N1CCC[C@H]1C(=O)N[C@@H](CO)C(N)=O)[C@@H](C)O [Ab P008] (H-HGEGTFTSDLSKQLEEERVQLFIEWLKATGPSSGAPPPS-NH2) showed a pEC50 [1] of less than 8.00, a pEC50 (human GIP receptor) of less than 8.00 and a pEC50 (human GLP-1 receptor) of 10.63.
CC[C@H](C)[C@H](NC(=O)[C@H](Cc1ccccc1)NC(=O)[C@H](CC(C)C)NC(=O)[C@H](CCC(N)=O)NC(=O)[C@@H](NC(=O)[C@H](C)NC(=O)[C@H](CCC(=O)O)NC(=O)[C@H](CCC(=O)O)NC(=O)[C@H](CCC(=O)O)NC(=O)[C@H](CC(C)C)NC(=O)[C@H](CCC(N)=O)NC(=O)[C@H](CCCCN)NC(=O)[C@H](CO)NC(=O)[C@H](CC(C)C)NC(=O)[C@H](CC(=O)O)NC(=O)[C@H](CO)NC(=O)[C@@H](NC(=O)[C@H](Cc1ccccc1)NC(=O)[C@@H](NC(=O)CNC(=O)[C@H](CCC(=O)O)NC(=O)CNC(=O)[C@H](Cc1c[nH]cn1)NC(=O)CN)[C@@H](C)O)[C@@H](C)O)C(C)C)C(=O)N[C@@H](C)C(=O)N[C@@H](Cc1c[nH]c2ccccc12)C(=O)N[C@@H](CC(C)C)C(=O)N[C@H](C(=O)N[C@@H](CCCCN)C(N)=O)C(C)C [Ab P041] (H-GHGEGTFTSDLSKQLEEEAVQLFIAWLVK-NH2; N-terminus assumed) was tested, and the pEC50 [1, 2] was less than 8.00, the pEC50 (human GIP receptor; [3]) was less than 8.00 and the pEC50 (human GLP-1 receptor; [4]) was 10.49.
